pEC50: −log10 of the molar value. Where a name gives a salt, the structure may show the parent alone. Read-outs that look alike come from different tables or passages of the source.
How the values were obtained:
Type in all cases: cell-based
CD8 T cells = assay: CD69 expression on aCD3/aCD28 stimulated isolated human CD8 T cells (flow cytometry); details: T-cell, 24 h after TCR stimulation, read-out: Activity Class CD69 (CD8)
Experimental: (§1) Isolated T cells were plated in Xvivo medium at 1.5*10 ^5 cells per in 96 well culture plates and TCR-stimulated with anti-CD3/28 mAbs in the presence of compound as indicated. Cytokine production was determined at 24 h or 48 h following TCR stimulation in cell culture supernatants using commercially available ELISA kits (BD and eBioscience) as recommended by the manufacturer. T cell proliferation and CD25 expression (CD25-PC5 reagent purchased from Beckman Coulter) was determined by flow cytometry (Beckman-Coulter FC500) and analysed with Kaluza Software. For measurement of CD69 expression, isolated CD4 and CD8 T cells were plated in Xvivo medium at […] per in 96 well culture plates and TCR-stimulated with anti-CD3/28 mAbs in the presence of compound. CD69 expression was determined at 24 h following TCR stimulation by flow cytometry (CD4eF450, CD8APCeF780 and CD69-PC7 reagent purchased from eBioscience) and analysed with Kaluza Software.
(§2) For measurement of CD69 expression, isolated CD4 and CD8 T cells were plated in Xvivo medium at 80000 cells per in 96 well culture plates and TCR-stimulated with anti-CD3/28 mAbs in the presence of compound. CD69 expression was determined at 24 h following TCR stimulation by flow cytometry (CD4eF450, CD8APCeF780 and CD69-PC7 reagent purchased from eBioscience) and analysed with Kaluza Software.

[1] = test system: aCD3/aCD28-stimulated human PBMCs; assay: Cytokine production in aCD3/aCD28 stimulated human PBMCs; details: PBMC, 18 h
Procedure, shortened: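 Ficoll-isolated human PBMCs at 1e6 cells/mL in X-Vivo15, stimulated with soluble anti-CD3/CD28 (OKT3 and 28.2, 1 μg/mL each) plus compound for 18 h at 37° C. Supernatant cytokines quantified by MSD or HTRF.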

[2] = test system: aCD3/aCD28-stimulated human CD4+-T-cells; assay: IL-2 production and activation markers in aCD3/aCD28 stimulated isolated human CD4+-T-cells; details: IL-2 production at 3 μM compound
Procedure, shortened: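 CD4+ T cells isolated from buffy-coat PBMCs by microbeads were plated in Xvivo medium (1.5*10^5 cells/well) and stimulated with anti-CD3/28 mAbs plus compound. IL-2 measured by ELISA in supernatants at 24 h or 48 h; CD25 and proliferation by flow cytometry, CD69 at 24 h. Activity classes based on IL-2 at 3 μM compound.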

CD4 T cells = assay: CD69 expression on aCD3/aCD28 stimulated isolated human CD4 T cells (flow cytometry); details: 24 h after TCR stimulation, read-out: Activity Class CD69 (CD4)
Experimental: as §1, §2

[3] = enhancement of IFN-γ production, read-out: Activity Class IFN-γ
[4] = enhancement of IL-2 production, read-out: Activity Class IL-2

CCCCNC(=O)c1cc2c(cc1F)S(=O)(=O)C[C@H](N)C(=O)N2Cc1ccc(Cl)cc1.Cl [Example 69, (3R)-3-amino-N-butyl-5-[(4-chlorophenyl)methyl]-8-fluoro-1,1,4-trioxo-2,3,4,5-tetrahydro-1λ^6,5-benzothiazepine-7-carboxamide hydrochloride]
pEC50 (CD8 T cells): > 5.80 | pEC50 [1, 3]: > 5.80 | pEC50 [1, 4]: > 5.80 | Activity Class CD4+ [2]: A (IL-2 production at 3 μM compound concentration >10 ng/mL) | pEC50 (CD4 T cells): > 5.80

Cl.N[C@H]1CS(=O)(=O)c2cc(F)c(C(=O)NCC3CCOCC3)cc2N(Cc2ccc(Cl)cc2)C1=O [Example 71, (3R)-3-amino-5-[(4-chlorophenyl)methyl]-8-fluoro-N-(oxan-4-ylmethyl)-1,1,4-trioxo-2,3,4,5-tetrahydro-1λ^6,5-benzothiazepine-7-carboxamide hydrochloride]
pEC50 (CD8 T cells): > 5.80 | pEC50 [1, 3]: > 5.80 | pEC50 [1, 4]: > 5.80 | Activity Class CD4+ [2]: B (IL-2 production at 3 μM compound concentration between 2-10 ng/mL) | pEC50 (CD4 T cells): > 5.80

N[C@H]1CS(=O)(=O)c2cc(F)c(C(=O)NC3CC3C(F)(F)F)cc2N(Cc2ccc(Cl)cc2)C1=O (stereo partly drawn) [Example 127, (3R)-3-amino-5-[(4-chlorophenyl)methyl]-8-fluoro-1,1,4-trioxo-N-[2-(trifluoromethyl)cyclopropyl]-2,3,4,5-tetrahydro-1λ^6,5-benzothiazepine-7-carboxamide hydrochloride]
pEC50 (CD8 T cells): > 5.80 | pEC50 [1, 3]: > 5.80 | pEC50 [1, 4]: 5.30 to 5.80 | pEC50 (CD4 T cells): > 5.80

COc1ccc(CN2C(=O)[C@@H](N)CS(=O)(=O)c3ccc(C(=O)NCCCC(F)(F)F)cc32)cc1 [Example 150, (3R)-3-amino-5-[(4-methoxyphenyl)methyl]-1,1,4-trioxo-N-(4,4,4-trifluorobutyl)-2,3,4,5-tetrahydro-1λ^6,5-benzothiazepine-7-carboxamide]
pEC50 (CD8 T cells): < 5.30 | pEC50 [1, 3]: 5.30 to 5.80 | pEC50 [1, 4]: 5.30 to 5.80 | pEC50 (CD4 T cells): < 5.30

COc1ccc(CNC(=O)c2cc3c(cc2F)S(=O)(=O)C[C@H](N)C(=O)N3Cc2ccc(Cl)cc2)cc1 [Example 137, (3R)-3-amino-5-[(4-chlorophenyl)methyl]-8-fluoro-N-[(4-methoxyphenyl)methyl]-1,1,4-trioxo-2,3,4,5-tetrahydro-1λ^6,5-benzothiazepine-7-carboxamide hydrochloride]
pEC50 (CD8 T cells): > 5.80 | pEC50 [1, 3]: > 5.80 | pEC50 [1, 4]: > 5.80 | pEC50 (CD4 T cells): > 5.80

N[C@H]1CS(=O)(=O)c2ccc(C(=O)N[C@@H]3CCC(F)(F)C3)cc2N(Cc2ccc(Cl)cc2)C1=O [Example 169, (3R)-3-amino-5-[(4-chlorophenyl)methyl]-N-[(1R)-3,3-difluorocyclopentyl]-1,1,4-trioxo-2,3,4,5-tetrahydro-1λ^6,5-benzothiazepine-7-carboxamide]
pEC50 (CD8 T cells): > 5.80 | pEC50 [1, 3]: > 5.80 | pEC50 [1, 4]: > 5.80 | pEC50 (CD4 T cells): > 5.80

COc1ccc(CN2C(=O)[C@@H](N)CS(=O)(=O)c3cc(F)c(C(=O)NC4CC4(F)F)cc32)cc1 (stereo partly drawn) [Example 143, (3R)-3-amino-N-(2,2-difluorocyclopropyl)-8-fluoro-5-[(4-methoxyphenyl)methyl]-1,1,4-trioxo-2,3,4,5-tetrahydro-1λ^6,5-benzothiazepine-7-carboxamide]
pEC50 (CD8 T cells): < 5.30 | pEC50 [1, 3]: 5.30 to 5.80 | pEC50 [1, 4]: 5.30 to 5.80 | pEC50 (CD4 T cells): 5.30 to 5.80

N[C@H]1CS(=O)(=O)c2cc(F)c(C(=O)NC3CC3(F)F)cc2N(Cc2ccc(F)cc2)C1=O (stereo partly drawn) [Example 130, (3R)-3-amino-N-(2,2-difluorocyclopropyl)-8-fluoro-5-[(4-fluorophenyl)methyl]-1,1,4-trioxo-2,3,4,5-tetrahydro-1λ^6,5-benzothiazepine-7-carboxamide hydrochloride]
pEC50 (CD8 T cells): 5.30 to 5.80 | pEC50 [1, 3]: 5.30 to 5.80 | pEC50 [1, 4]: < 5.30 | pEC50 (CD4 T cells): < 5.30

COc1ccc(CN2C(=O)[C@@H](N)CS(=O)(=O)c3cc(F)c(C(=O)NCC4CCOCC4)cc32)cc1 [Example 142, (3R)-3-amino-8-fluoro-5-[(4-methoxyphenyl)methyl]-N-[(oxan-4-yl)methyl]-1,1,4-trioxo-2,3,4,5-tetrahydro-1λ^6,5-benzothiazepine-7-carboxamide]
pEC50 (CD8 T cells): < 5.30 | pEC50 [1, 3]: 5.30 to 5.80 | pEC50 [1, 4]: 5.30 to 5.80 | pEC50 (CD4 T cells): < 5.30

N[C@H]1CS(=O)(=O)c2cc(F)c(C(=O)N[C@H]3CCC(F)(F)C3)cc2N(Cc2ccc(Cl)cc2)C1=O [Example 146, (3R)-3-amino-5-[(4-chlorophenyl)methyl]-N-[(1S)-3,3-difluorocyclopentyl]-8-fluoro-1,1,4-trioxo-2,3,4,5-tetrahydro-1λ^6,5-benzothiazepine-7-carboxamide]
pEC50 (CD8 T cells): 5.30 to 5.80 | pEC50 [1, 3]: > 5.80 | pEC50 [1, 4]: > 5.80 | pEC50 (CD4 T cells): 5.30 to 5.80

N[C@H]1CS(=O)(=O)c2ccc(C(=O)NC3CC(F)(F)C3)cc2N(Cc2ccc(Cl)cc2)C1=O [Example 145, (3R)-3-amino-5-[(4-chlorophenyl)methyl]-N-(3,3-difluorocyclobutyl)-1,1,4-trioxo-2,3,4,5-tetrahydro-1λ^6,5-benzothiazepine-7-carboxamide]
pEC50 (CD8 T cells): > 5.80 | pEC50 [1, 3]: 5.30 to 5.80 | pEC50 [1, 4]: 5.30 to 5.80 | pEC50 (CD4 T cells): > 5.80

N#Cc1ccc(CN2C(=O)[C@@H](N)CS(=O)(=O)c3cc(F)c(C(=O)NC4CC4(F)F)cc32)cc1 (stereo partly drawn) [Example 124, (3R)-3-amino-5-[(4-cyanophenyl)methyl]-N-(2,2-difluorocyclopropyl)-8-fluoro-1,1,4-trioxo-2,3,4,5-tetrahydro-1λ^6,5-benzothiazepine-7-carboxamide hydrochloride]
pEC50 (CD8 T cells): < 5.30 | pEC50 [1, 3]: 5.30 to 5.80 | pEC50 [1, 4]: < 5.30 | pEC50 (CD4 T cells): < 5.30

N#Cc1ccc(CN2C(=O)[C@@H](N)CS(=O)(=O)c3cc(F)c(C(=O)NCCCC(F)(F)F)cc32)cc1 [Example 125, (3R)-3-amino-5-[(4-cyanophenyl)methyl]-8-fluoro-1,1,4-trioxo-N-(4,4,4-trifluorobutyl)-2,3,4,5-tetrahydro-1λ^6,5-benzothiazepine-7-carboxamide hydrochloride]
pEC50 (CD8 T cells): 5.30 to 5.80 | pEC50 [1, 3]: > 5.80 | pEC50 [1, 4]: 5.30 to 5.80 | pEC50 (CD4 T cells): 5.30 to 5.80

N[C@H]1CS(=O)(=O)c2ccc(C(=O)N[C@@H]3CC3(F)F)cc2N(Cc2ccc(Cl)cc2)C1=O [Example 158, (3R)-3-amino-5-[(4-chlorophenyl)methyl]-N-[(1R)-2,2-difluorocyclopropyl]-1,1,4-trioxo-2,3,4,5-tetrahydro-1λ^6,5-benzothiazepine-7-carboxamide]
pEC50 (CD8 T cells): 5.30 to 5.80 | pEC50 [1, 3]: > 5.80 | pEC50 [1, 4]: 5.30 to 5.80 | pEC50 (CD4 T cells): 5.30 to 5.80

N[C@H]1CS(=O)(=O)c2cc(F)c(C(=O)NC3CC(F)(F)C3)cc2N(Cc2ccc(F)cc2)C1=O [Example 140, (3R)-3-amino-N-(3,3-difluorocyclobutyl)-8-fluoro-5-[(4-fluorophenyl)methyl]-1,1,4-trioxo-2,3,4,5-tetrahydro-1λ^6,5-benzothiazepine-7-carboxamide hydrochloride]
pEC50 (CD8 T cells): < 5.30 | pEC50 [1, 3]: 5.30 to 5.80 | pEC50 [1, 4]: 5.30 to 5.80 | pEC50 (CD4 T cells): 5.30 to 5.80

N[C@H]1CS(=O)(=O)c2cc(Cl)c(C(=O)NCCCC(F)(F)F)cc2N(Cc2ccc(Cl)cc2)C1=O [Example 163, (3R)-3-amino-8-chloro-5-[(4-chlorophenyl)methyl]-1,1,4-trioxo-N-(4,4,4-trifluorobutyl)-2,3,4,5-tetrahydro-1λ^6,5-benzothiazepine-7-carboxamide]
pEC50 (CD8 T cells): > 5.80 | pEC50 [1, 3]: > 5.80 | pEC50 [1, 4]: 5.30 to 5.80 | pEC50 (CD4 T cells): > 5.80

COc1ccc(CNC(=O)c2ccc3c(c2)N(Cc2ccccc2)C(=O)[C@@H](N)CS3(=O)=O)cc1 [Example 152, (3R)-3-amino-5-benzyl-N-[(4-methoxyphenyl)methyl]-1,1,4-trioxo-2,3,4,5-tetrahydro-1λ^6,5-benzothiazepine-7-carboxamide]
pEC50 (CD8 T cells): 5.30 to 5.80 | pEC50 [1, 3]: 5.30 to 5.80 | pEC50 [1, 4]: < 5.30 | pEC50 (CD4 T cells): 5.30 to 5.80

N[C@H]1CS(=O)(=O)c2ccc(C(=O)NCC3CC(F)(F)C3)cc2N(Cc2ccc(Cl)cc2)C1=O [Example 171, (3R)-3-amino-5-[(4-chlorophenyl)methyl]-N-[(3,3-difluorocyclobutyl)methyl]-1,1,4-trioxo-2,3,4,5-tetrahydro-1λ^6,5-benzothiazepine-7-carboxamide]
pEC50 (CD8 T cells): > 5.80 | pEC50 [1, 3]: 5.30 to 5.80 | pEC50 [1, 4]: > 5.80 | pEC50 (CD4 T cells): > 5.80

Cl.N[C@H]1CS(=O)(=O)c2cc(F)c(C(=O)N[C@H]3CC3(F)F)cc2N(Cc2ccc(Cl)cc2)C1=O (single isomer, unassigned) [Example 107, hydrochloride]
pEC50 (CD8 T cells): > 5.80 | pEC50 [1, 3]: > 5.80 | pEC50 [1, 4]: > 5.80 | pEC50 (CD4 T cells): > 5.80

Reference: patent US10472341B2, “Bicyclic tetrahydrothiazepine derivatives useful for the treatment of neoplastic and/or infectious diseases” (APEIRON BIOLOGICS AG, priority 2015, dated 2019)
